What was measured:
Assay in all cases: relative viability (nuclei count vs DMSO), 5 days (fraction); higher = more cells survive
NCI-H520 = tested on: NCI-H520
How it was run: (§1)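 Lung cancer cell lines, seeded in 1536-well plates, were treated the following day by pin tool with a single drug or with five library-drug doses (not always all listed) in √10 steps on top of a fixed anchor-drug dose. Cells were fixed and nuclei stained in one step after 5 days, and nuclei were counted. Relative viability is the nuclei count for treated wells divided by that for vehicle wells, reported as medians of duplicate plates.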

PC-3 [JPC-3] = tested on: PC-3 [JPC-3]
How it was run: as §1

NCI-H838 = tested on: NCI-H838
How it was run: as §1

NCI-H650 = tested on: NCI-H650
How it was run: as §1

NCI-H1944 = tested on: NCI-H1944
How it was run: as §1

NCI-H1651 = tested on: NCI-H1651
How it was run: as §1

A549 = tested on: A549
How it was run: as §1

NCI-H1623 = tested on: NCI-H1623
How it was run: as §1

RERF-LC-KJ = tested on: RERF-LC-KJ
How it was run: as §1

## Nc1ccn([C@@H]2O[C@H](CO)[C@@H](O)[C@@H]2O)c(=O)n1 [Cytarabine] + N=C(N)NC(=N)NCCc1ccccc1 [Phenformin] (partner 250 µM)
NCI-H520; first compound 0.005 µM
  relative viability: 0.558
NCI-H520; first compound 0.01581 µM
  relative viability: 0.314
NCI-H520; first compound 0.05 µM
  relative viability: 0.658
NCI-H520; first compound 0.1581 µM
  relative viability: 0.383
NCI-H520; first compound 0.5 µM
  relative viability: 0.323
PC-3 [JPC-3]; first compound 0.005 µM
  relative viability: 0.493
PC-3 [JPC-3]; first compound 0.01581 µM
  relative viability: 0.468
PC-3 [JPC-3]; first compound 0.05 µM
  relative viability: 0.418
PC-3 [JPC-3]; first compound 0.1581 µM
  relative viability: 0.346
PC-3 [JPC-3]; first compound 0.5 µM
  relative viability: 0.358
NCI-H838; first compound 0.005 µM
  relative viability: 0.482
NCI-H838; first compound 0.01581 µM
  relative viability: 0.532
NCI-H838; first compound 0.05 µM
  relative viability: 0.422
NCI-H838; first compound 0.1581 µM
  relative viability: 0.241
NCI-H838; first compound 0.5 µM
  relative viability: 0.201
NCI-H650; first compound 0.005 µM
  relative viability: 0.448
NCI-H650; first compound 0.01581 µM
  relative viability: 0.33
NCI-H650; first compound 0.05 µM
  relative viability: 0.185
NCI-H650; first compound 0.1581 µM
  relative viability: 0.194
NCI-H650; first compound 0.5 µM
  relative viability: 0.187
NCI-H1944; first compound 0.005 µM
  relative viability: 0.166
NCI-H1944; first compound 0.01581 µM
  relative viability: 0.184
NCI-H1944; first compound 0.05 µM
  relative viability: 0.14
NCI-H1944; first compound 0.1581 µM
  relative viability: 0.106
NCI-H1944; first compound 0.5 µM
  relative viability: 0.103
NCI-H1651; first compound 0.005 µM
  relative viability: 0.304
NCI-H1651; first compound 0.01581 µM
  relative viability: 0.346
NCI-H1651; first compound 0.05 µM
  relative viability: 0.319
NCI-H1651; first compound 0.1581 µM
  relative viability: 0.2
NCI-H1651; first compound 0.5 µM
  relative viability: 0.18
A549; first compound 0.005 µM
  relative viability: 0.104
A549; first compound 0.01581 µM
  relative viability: 0.127
A549; first compound 0.05 µM
  relative viability: 0.106
A549; first compound 0.1581 µM
  relative viability: 0.0512
A549; first compound 0.5 µM
  relative viability: 0.0301
NCI-H1623; first compound 0.005 µM
  relative viability: 0.432
NCI-H1623; first compound 0.01581 µM
  relative viability: 0.396
NCI-H1623; first compound 0.05 µM
  relative viability: 0.357
NCI-H1623; first compound 0.1581 µM
  relative viability: 0.402
NCI-H1623; first compound 0.5 µM
  relative viability: 0.431
RERF-LC-KJ; first compound 0.005 µM
  relative viability: 0.381
RERF-LC-KJ; first compound 0.01581 µM
  relative viability: 0.369
RERF-LC-KJ; first compound 0.05 µM
  relative viability: 0.308
RERF-LC-KJ; first compound 0.1581 µM
  relative viability: 0.298
RERF-LC-KJ; first compound 0.5 µM
  relative viability: 0.274

## CC(=O)O[C@@]12CO[C@@H]1C[C@H](O)[C@@]1(C)C(=O)[C@H](O)C3=C(C)[C@@H](OC(=O)[C@H](O)[C@@H](NC(=O)OC(C)(C)C)c4ccccc4)C[C@@](O)([C@@H](OC(=O)c4ccccc4)[C@H]21)C3(C)C [Docetaxel] + CCNC(=O)c1noc(-c2cc(C(C)C)c(O)cc2O)c1-c1ccc(CN2CCOCC2)cc1 [Luminespib] (partner 0.01 µM)
NCI-H520; first compound 0.000632 µM
  relative viability: 0.23
NCI-H520; first compound 0.002 µM
  relative viability: 0.233
NCI-H520; first compound 0.006325 µM
  relative viability: 0.259
NCI-H520; first compound 0.02 µM
  relative viability: 0.207
PC-3 [JPC-3]; first compound 0.0002 µM
  relative viability: 0.678
PC-3 [JPC-3]; first compound 0.000632 µM
  relative viability: 0.684
PC-3 [JPC-3]; first compound 0.002 µM
  relative viability: 0.5
PC-3 [JPC-3]; first compound 0.006325 µM
  relative viability: 0.223
PC-3 [JPC-3]; first compound 0.02 µM
  relative viability: 0.141
NCI-H838; first compound 0.0002 µM
  relative viability: 0.389
NCI-H838; first compound 0.000632 µM
  relative viability: 0.3
NCI-H838; first compound 0.002 µM
  relative viability: 0.138
NCI-H838; first compound 0.006325 µM
  relative viability: 0.147
NCI-H838; first compound 0.02 µM
  relative viability: 0.112
NCI-H650; first compound 0.0002 µM
  relative viability: 0.796
NCI-H650; first compound 0.000632 µM
  relative viability: 0.519
NCI-H650; first compound 0.002 µM
  relative viability: 0.212
NCI-H650; first compound 0.006325 µM
  relative viability: 0.18
NCI-H650; first compound 0.02 µM
  relative viability: 0.111
NCI-H1944; first compound 0.0002 µM
  relative viability: 0.724
NCI-H1944; first compound 0.000632 µM
  relative viability: 0.723
NCI-H1944; first compound 0.002 µM
  relative viability: 0.635
NCI-H1944; first compound 0.006325 µM
  relative viability: 0.249
NCI-H1944; first compound 0.02 µM
  relative viability: 0.114
NCI-H1651; first compound 0.0002 µM
  relative viability: 0.821
NCI-H1651; first compound 0.000632 µM
  relative viability: 0.842
NCI-H1651; first compound 0.002 µM
  relative viability: 0.258
NCI-H1651; first compound 0.006325 µM
  relative viability: 0.27
NCI-H1651; first compound 0.02 µM
  relative viability: 0.12
NCI-H1623; first compound 0.0002 µM
  relative viability: 0.543
NCI-H1623; first compound 0.000632 µM
  relative viability: 0.405
NCI-H1623; first compound 0.002 µM
  relative viability: 0.455
NCI-H1623; first compound 0.006325 µM
  relative viability: 0.353
NCI-H1623; first compound 0.02 µM
  relative viability: 0.281
RERF-LC-KJ; first compound 0.0002 µM
  relative viability: 1.16
RERF-LC-KJ; first compound 0.000632 µM
  relative viability: 0.853
RERF-LC-KJ; first compound 0.002 µM
  relative viability: 0.353
RERF-LC-KJ; first compound 0.02 µM
  relative viability: 0.211

## CC(=O)O[C@@]12CO[C@@H]1C[C@H](O)[C@@]1(C)C(=O)[C@H](O)C3=C(C)[C@@H](OC(=O)[C@H](O)[C@@H](NC(=O)OC(C)(C)C)c4ccccc4)C[C@@](O)([C@@H](OC(=O)c4ccccc4)[C@H]21)C3(C)C [Docetaxel] + Cc1nc(Nc2ncc(C(=O)Nc3c(C)cccc3Cl)s2)cc(N2CCN(CCO)CC2)n1 [Dasatinib] (partner 0.075 µM)
NCI-H520; first compound 0.0002 µM
  relative viability: 0.186
NCI-H520; first compound 0.000632 µM
  relative viability: 0.194
NCI-H520; first compound 0.002 µM
  relative viability: 0.164
NCI-H520; first compound 0.006325 µM
  relative viability: 0.159
NCI-H520; first compound 0.02 µM
  relative viability: 0.126
PC-3 [JPC-3]; first compound 0.0002 µM
  relative viability: 0.94
PC-3 [JPC-3]; first compound 0.000632 µM
  relative viability: 0.954
PC-3 [JPC-3]; first compound 0.002 µM
  relative viability: 0.762
PC-3 [JPC-3]; first compound 0.006325 µM
  relative viability: 0.339
PC-3 [JPC-3]; first compound 0.02 µM
  relative viability: 0.16
NCI-H838; first compound 0.0002 µM
  relative viability: 0.318
NCI-H838; first compound 0.000632 µM
  relative viability: 0.3
NCI-H838; first compound 0.002 µM
  relative viability: 0.265
NCI-H838; first compound 0.006325 µM
  relative viability: 0.247
NCI-H838; first compound 0.02 µM
  relative viability: 0.175
NCI-H650; first compound 0.0002 µM
  relative viability: 0.396
NCI-H650; first compound 0.000632 µM
  relative viability: 0.361
NCI-H650; first compound 0.002 µM
  relative viability: 0.253
NCI-H650; first compound 0.006325 µM
  relative viability: 0.228
NCI-H650; first compound 0.02 µM
  relative viability: 0.198
NCI-H1944; first compound 0.0002 µM
  relative viability: 0.216
NCI-H1944; first compound 0.000632 µM
  relative viability: 0.228
NCI-H1944; first compound 0.002 µM
  relative viability: 0.204
NCI-H1944; first compound 0.006325 µM
  relative viability: 0.178
NCI-H1944; first compound 0.02 µM
  relative viability: 0.105
NCI-H1651; first compound 0.0002 µM
  relative viability: 0.338
NCI-H1651; first compound 0.000632 µM
  relative viability: 0.236
NCI-H1651; first compound 0.002 µM
  relative viability: 0.119
NCI-H1651; first compound 0.006325 µM
  relative viability: 0.0789
NCI-H1651; first compound 0.02 µM
  relative viability: 0.0711
NCI-H1623; first compound 0.0002 µM
  relative viability: 0.555
NCI-H1623; first compound 0.000632 µM
  relative viability: 0.529
NCI-H1623; first compound 0.002 µM
  relative viability: 0.472
NCI-H1623; first compound 0.006325 µM
  relative viability: 0.313
NCI-H1623; first compound 0.02 µM
  relative viability: 0.239
RERF-LC-KJ; first compound 0.0002 µM
  relative viability: 0.754
RERF-LC-KJ; first compound 0.000632 µM
  relative viability: 0.586
RERF-LC-KJ; first compound 0.002 µM
  relative viability: 0.295
RERF-LC-KJ; first compound 0.006325 µM
  relative viability: 0.264
RERF-LC-KJ; first compound 0.02 µM
  relative viability: 0.155
